Results: publication PMC6037002, “Drug targeting to decrease cardiotoxicity – determination of the cytotoxic effect of GnRH-based conjugates containing doxorubicin, daunorubicin and methotrexate on human cardiomyocytes and endothelial cells” (Beilstein Journal of Organic Chemistry, 2018)
Read-outs that look alike come from different tables or passages of the source.

Legend:
[1] = test system: human umbilical vein endothelial cells (HUVEC); assay: Impedimetric measurement (xCELLigence SP), delta slope, HUVEC; conditions: for delta slope (DS), short-term / delta slope (DS), long-term: HUVEC, three parallels; for delta slope (DS), short-term: 0–2 h; for delta slope (DS), long-term: 0–72 h; for Cardiotoxicity, HUVEC: grade +++/++/+/0, key not given, summary of impedimetric cytotoxicity; for cytotoxic effect on HUVEC, result in words: long-term (0–72 h), 10^−8–10^−6 mol/L, impedimetry, one-way ANOVA
Source text: (§1) The main objective of the study reported here was to evaluate the in vitro cardiotoxic effects (as undesired side effects) of […] GnRH-III-based conjugates containing doxorubicin, daunorubicin and methotrexate on two essential target cells of cardiovascular diseases: vascular endothelial cells and cardiomyocytes. The rate of cytotoxicity (antitumor effect) vs cardiotoxicity (toxic effects on cardiomyocytes and vascular endothelium) is an important factor for efficient drug development for targeted tumor therapy with minimized side effects. The technique used in this work – impedimetry – is a dedicated one for real-time monitoring of cells to distinguish short-term (0–2 hours) and long-term (0–72 hours) effects elicited by the drug or carrier–drug conjugates. The basic theory of impedimetry is that proliferation/viability of cells is well detectable by monitoring of the electric impedance (Z) in an AC environment, due to the electric insulator character of intact surface membranes composed of the phospholipid bilayer. […] While cell physiological responses of short-term exposures result in characteristic changes of cell morphology (e.g., spreading), long-term effects characteristically influence in particular the proliferation of cells, and therefore the cytotoxic effects. The presented dimensionless values of delta slope (DS) measure the difference between the slope of the curve corresponding to the treatment and that of the control curve in impedimetric recordings, the negative signs refer to the relative values to the identical control.
(§2) Experimental part – Cellular samples
(§3) In the present study, GnRH conjugates containing anti-tumour drugs (e.g., daunorubicin, doxorubicin) were investigated in order to evaluate whether the conjugates exert a decrease cardiotoxic effect compared to that of the free drugs. The cardiac myocytes and the vascular endothelium cells are the most frequently detected target cells of antitumor compounds and they are employed in our study. Human umbilical vein endothelial cells (HUVEC; Promocell, Biomedica, Wien, Austria) were cultured in Endothelial Cell Growth Medium with Endothelial Cell Growth Supplement Mix (Promocell, Biomedica, Wien, Austria) and 100 µg/mL penicillin/streptomycin. Primary human cardiac myocytes (HCM; Promocell, Biomedica, Wien, Austria) were cultured in Myocyte Growth Medium (Promocell, Biomedica, Wien, Austria).
(§4) Impedimetric measurements
(§5) The xCELLigence SP system was used for impedimetric measurements. The bottom of the wells of a 96-well E-plate is installed with a golden electrode array that constitutes the adhesion surface. Adhering cells – acting as insulators – change the electric impedance measured on the electrodes. The measured impedance change is in direct correlation with the number of adhering cells and the extent of adhesion. The results of impedance change are given in the form of Cell Index (CI) calculated by the xCELLigence system according to the […]
(§6) where Zt is the measured impedance in a time point, Zb is the background impedance and F is an inbuilt factor (F = 15 at 10 kHz) depending on the frequency of the alternating current. The measurements took place in an incubator holding a 37 °C temperature and 5% carbon-dioxide […]
(§7) The experiments started with a measurement of baseline impedance for 1 hour. After that, the cells (10^4 cells/well) were added to the wells and allowed to adhere to the electrodes. When the adhering cells reached a balanced state in the wells, signified by the impedance curves […]
(§8) free drugs at 10−12 – 10−6 M and the conjugates at 10−8 – 10−6 M final concentrations were […]
(§9) added to the wells. The changes in impedance were measured for at least 72 hours. For each measurement three parallels were measured.
(§10) The evaluation of responses followed the previously described strategy: acute effects of compounds were evaluated as a characteristic morphology of the curves in the 0–2 hours

[2] = test system: primary human cardiac myocytes (HCM); conditions: for delta slope (DS), short-term / delta slope (DS), long-term: HCM, three parallels; for delta slope (DS), short-term: 0–2 h; for delta slope (DS), long-term: 0–72 h; for Cardiotoxicity, HCM: grade +++/++/+/0, key not given, summary of impedimetric cytotoxicity; for cytotoxic effect on HCM, result in words: long-term (0–72 h), 10^−8–10^−6 mol/L (free drugs 10^−12–10^−6 mol/L), impedimetry, one-way ANOVA
Source text: as §1, §2, §3, §4, §5, §6, §7, §8, §9, §10

[3] = test system: HT-29 human colon adenocarcinoma cells; conditions: MTT assay; cited from earlier work
Source text: (§11) Table 1 Comparative study of cytotoxic effects and cardiotoxicity elicited by GnRH-based antitumor compounds (1–15) and reference substances (AN-152, Dox, Dau, Mtx). IC50 values show antitumor cytotoxic characteristics of the conjugates in human breast cancer (MCF-7), human colorectal adenocarcinoma (HT-29) and human acute monocytic leukemia (MM6) derived cell lines as representative tumor cells.

[4] = test system: MCF-7 human breast adenocarcinoma cells; conditions: MTT assay; cited from earlier work
Source text: as §11

[5] = test system: human acute monocytic leukemia (MonoMac6) cells; conditions: cited from earlier work
Source text: as §11

Substance	delta slope (DS), short-term ([1]; Table S2a, 10^-6 mol/L)	delta slope (DS), short-term ([1]; Table S2a, 10^-7 mol/L)	delta slope (DS), short-term ([1]; Table S2a, 10^-8 mol/L)	delta slope (DS), long-term ([1]; Table S2a, 10^-8 mol/L)	delta slope (DS), short-term ([2]; Table S2b, 10^-6 mol/L)	delta slope (DS), short-term ([2]; Table S2b, 10^-7 mol/L)	delta slope (DS), short-term ([2]; Table S2b, 10^-8 mol/L)	delta slope (DS), long-term ([2]; Table S2b, 10^-6 mol/L)	delta slope (DS), long-term ([2]; Table S2b, 10^-8 mol/L)	IC50 [3] [nM]	IC50 [4] [nM]	IC50 [5] [nM]	delta slope (DS), short-term ([1]; Table S3a, 10^-6 mol/L)	delta slope (DS), short-term ([1]; Table S3a, 10^-7 mol/L)	delta slope (DS), short-term ([1]; Table S3a, 10^-8 mol/L)	delta slope (DS), long-term ([1]; Table S3a, 10^-6 mol/L)	delta slope (DS), long-term ([1]; Table S3a, 10^-7 mol/L)	delta slope (DS), long-term ([1]; Table S3a, 10^-8 mol/L)	Cardiotoxicity, HUVEC [1]	cytotoxic effect on HCM, result in words [2]	other results
Glp-His-Trp-Ser-Tyr-D-Lys(Dox-O-glut)-Leu-Arg-Pro-Gly-NH2 [AN-152, reference compound]	0.031	0.014	-0.004	-0.005	0.008	-0.001	0.001	−0.023	-0.001	1900 ± 300	200 ± 100	35 ± 10	–	–	–	–	–	–	–	–	delta slope (DS), long-term ([1]; Table S2a, 10^-6 mol/L): −0.051; delta slope (DS), long-term ([1]; Table S2a, 10^-6 mol/L, listed as An-152): -0.051; delta slope (DS), long-term ([1]; Table S2a, 10^-7 mol/L): −0.029; delta slope (DS), long-term ([1]; Table S2a, 10^-7 mol/L, listed as An-152): -0.029; delta slope (DS), long-term ([2]; Table S2b, 10^-6 mol/L, listed as An-152): -0.023; delta slope (DS), long-term ([2]; Table S2b, 10^-7 mol/L): −0.008; delta slope (DS), long-term ([2]; Table S2b, 10^-7 mol/L, listed as An-152): -0.008
GnRH-III(Dau=Aoa) [conjugate 4]	–	–	–	–	–	–	–	–	–	27800 ± 4200	6500 ± 1800	> 1000	-0.003	-0.003	0.001	-0.001	-0.001	-0.001	0	completely lost their cytotoxic effect	cytotoxic effect on HUVEC, result in words [1]: completely lost the cytotoxic effect; delta slope (DS), short-term ([2]; Table S3b, 10^-6 mol/L): 0.001; delta slope (DS), short-term ([2]; Table S3b, 10^-7 mol/L): -0.001; delta slope (DS), short-term ([2]; Table S3b, 10^-8 mol/L): -0.002; delta slope (DS), long-term ([2]; Table S3b, 10^-6 mol/L): -0.001; delta slope (DS), long-term ([2]; Table S3b, 10^-7 mol/L): -0.001; delta slope (DS), long-term ([2]; Table S3b, 10^-8 mol/L): -0.001; Cardiotoxicity, HCM [2]: 0
GnRH-III(Dau=Aoa-GFLG) [conjugate 7]	–	–	–	–	–	–	–	–	–	22500 ± 1700	3900 ± 1200	894 ± 250	–	–	–	–	–	–	–	completely lost their cytotoxic effect	delta slope (DS), short-term ([1]; Table S4a, 10^-6 mol/L): 0.003; delta slope (DS), short-term ([1]; Table S4a, 10^-7 mol/L): -0.012; delta slope (DS), short-term ([1]; Table S4a, 10^-8 mol/L): -0.002; delta slope (DS), long-term ([1]; Table S4a, 10^-6 mol/L): −0.013; delta slope (DS), long-term ([1]; Table S4a, 10^-7 mol/L): 0.001; delta slope (DS), long-term ([1]; Table S4a, 10^-8 mol/L): -0.001; delta slope (DS), short-term ([2]; Table S4b, 10^-6 mol/L): 0.003; delta slope (DS), short-term ([2]; Table S4b, 10^-7 mol/L): -0.001; delta slope (DS), short-term ([2]; Table S4b, 10^-8 mol/L): -0.001; delta slope (DS), long-term ([2]; Table S4b, 10^-6 mol/L): -0.002; delta slope (DS), long-term ([2]; Table S4b, 10^-7 mol/L): -0.002; delta slope (DS), long-term ([2]; Table S4b, 10^-8 mol/L): 0.001
GnRH-III(Dau=Aoa-K(Dau=Aoa)) [conjugate 12]	–	–	–	–	–	–	–	–	–	5600 ± 2000	3000 ± 400	> 1000	-0.003	0.010	0.009	-0.001	-0.001	-0.001	0	completely lost their cytotoxic effect	cytotoxic effect on HUVEC, result in words [1]: completely lost the cytotoxic effect; delta slope (DS), short-term ([2]; Table S3b, 10^-6 mol/L): -0.001; delta slope (DS), short-term ([2]; Table S3b, 10^-7 mol/L): -0.001; delta slope (DS), short-term ([2]; Table S3b, 10^-8 mol/L): -0.001; delta slope (DS), long-term ([2]; Table S3b, 10^-6 mol/L): -0.002; delta slope (DS), long-term ([2]; Table S3b, 10^-7 mol/L): -0.001; delta slope (DS), long-term ([2]; Table S3b, 10^-8 mol/L): -0.001; Cardiotoxicity, HCM [2]: 0
GnRH-III(Dau=Aoa-YRRL) [conjugate 8]	–	–	–	–	–	–	–	–	–	28600 ± 5500	1800 ± 500	> 1000	–	–	–	–	–	–	–	–	delta slope (DS), short-term ([1]; Table S4a, 10^-6 mol/L): 0.003; delta slope (DS), short-term ([1]; Table S4a, 10^-7 mol/L): -0.004; delta slope (DS), short-term ([1]; Table S4a, 10^-8 mol/L): -0.010; delta slope (DS), long-term ([1]; Table S4a, 10^-6 mol/L): −0.018; delta slope (DS), long-term ([1]; Table S4a, 10^-7 mol/L): -0.002; delta slope (DS), long-term ([1]; Table S4a, 10^-8 mol/L): -0.007; delta slope (DS), short-term ([2]; Table S4b, 10^-6 mol/L): -0.002; delta slope (DS), short-term ([2]; Table S4b, 10^-7 mol/L): -0.001; delta slope (DS), short-term ([2]; Table S4b, 10^-8 mol/L): -0.003; delta slope (DS), long-term ([2]; Table S4b, 10^-6 mol/L): −0.004; delta slope (DS), long-term ([2]; Table S4b, 10^-7 mol/L): -0.002; delta slope (DS), long-term ([2]; Table S4b, 10^-8 mol/L): -0.001
GnRH-III(Dox-O-glut) [conjugate 1]	0.038	0.016	-0.011	-0.003	0.012	0.002	0.001	−0.025	−0.002	2400 ± 200	100 ± 100	39 ± 10	–	–	–	–	–	–	–	–	delta slope (DS), long-term ([1]; Table S2a, 10^-6 mol/L, listed as 1): -0.054; delta slope (DS), long-term ([1]; Table S2a, 10^-6 mol/L, listed as GnRH-III(Dox-O-glut)): −0.054; delta slope (DS), long-term ([1]; Table S2a, 10^-7 mol/L, listed as 1): -0.028; delta slope (DS), long-term ([1]; Table S2a, 10^-7 mol/L, listed as GnRH-III(Dox-O-glut)): −0.028
